Data on 4 compounds can be found in PMC4306533, “Distinct Features of Cap Binding by eIF4E1b Proteins” (Journal of Molecular Biology, 2015).

Experiment [1] has as its system rabbit reticulocyte lysate system (RRL). To be noted: cited from earlier work.
The next experiment has as its system eIF4E1a. Also on record: method as in PMID 15317978. To be noted: cited from earlier work.
The test system of experiment [2] is lung, breast cancer and malignant mesothelioma cells. Also on record: method as in PMID 23289910, PMID 24711125. To be noted: with gemcitabine or pemetrexed; cited from earlier work.
Another experiment relates to in vitro translation. More on the design: method as in PMID 10387101. To be noted: Cai et al.; read-out: IC50 (inhibitory potency); cited from earlier work.
Another experiment addresses T1, heIF4E1a (Homo sapiens, UniProt P06730).
T1 construct: made in house; host or cells: E. coli Rosetta2(DE3)
Also on record: method as in PMID 17369309. To be noted: equilibrium association constant; buffer without glycerol; footnote b; cited from earlier work.

The target in experiment [3] is T2, X4E1a6 (E101S/K102R/S195A/M82S/T206L/T207S) (Xenopus laevis, UniProt P48597, E101S/K102R/M82S/S195A/T206L/T207S).
T2 construct: made in house; host or cells: E. coli Rosetta2(DE3)
The experiment in a line: fluorescence titration, XeIF4E1a mutant. Format: binding. An excerpt: (§1) We tested the effect on cap-binding activity of these positions in the fluorescence assay with six mutated recombinant versions of Xenopus eIF4E1a (Fig. S4). The amino acids were introduced in XeIF4E1a sequentially in the order: E101S/K102R/S195A/M82S/T206L/T207S (numbering of the XeIF4E1a sequence is shifted backward by 4 amino acids relative to XeIF4E1b). […] The biggest contribution to the weaker cap binding of XeIF4E1a, in each case about 20%, resulted from changing Glu101 to Ser and Thr206 to Leu coupled with Thr207 to Ser, with the remaining mutations having only minor effects. […] Glu101 is a solvent-accessible amino acid and is proximal to Trp98 in the S3-S4 loop. […] Attenuation of the cap-binding affinity of XeIF4E1a resulting from mutating Thr206 and Thr207 is consistent with our results mentioned above showing significant influence of C-terminal loop residues on binding phosphate and the second nucleotide.
(§2) For human eIF4E1a and eIF4E1b and also for Xenopus eIF4E1a and its mutated forms, measurements were carried out using 0.1 μM protein in 50 mM Hepes/KOH (pH 7.2), 134.5 mM KCl, 0.5 mM EDTA and 1 mM DTT. For Xenopus eIF4E1b(ΔN27), the concentration was 0.2 μM and glycerol was added to the buffer to 10% (v/v) final concentration. […] The gradually increasing concentration of cap analogue quenches protein fluorescence without shifting the spectrum maximum, while at high concentrations, the fluorescence signal of free cap analogue dominates over the fluorescence from other solution components including free eIF4E and eIF4E in complex with cap (Fig. S2a). Fluorescence of measured samples was excited at 280 nm (2.5 nm bandwidth) and detected at 337 nm or 330 nm (4 nm bandwidth), thus reducing the signal originated from the free cap analogues. Measurements were carried out on a LS-55 spectrofluorometer (Perkin Elmer Co.) using freshly prepared proteins, and the fluorescence intensities were corrected for sample dilution and the inner filter effect.
(§3) Equilibrium association constants (Kas) were determined by fitting the theoretical dependence of fluorescence intensity on the total concentration of the cap analogue to the experimental data points, according to the equation described previously (see Ref. [22] and Fig. S2c). […] Along with Kas and the concentration of the active protein [P0^act], other parameters such as fL and ∆f = fPact − fPL are also gained from the fit, where fL represents the fluorescence efficiency of free cap analogue and ∆f represents the difference between the fluorescence efficiencies of the apo-protein and the complex (Fig. S2c).
(§4) The final Kas was calculated as a weighted average of 2–6 independent titrations with the weights taken as the reciprocal of the numerical standard deviation squared. Numerical, nonlinear least-squares regression analysis was performed using Origin 6.0 (Microcal Software Inc.). Obtained association constants were used to determine the Gibbs free energy according to the standard equation ΔG° = − RTlnKas.

The target in experiment [4] is T3, X4E1a3 (E101S/K102R/S195A) (Xenopus laevis, UniProt P48597, E101S/K102R/S195A).
T3 construct: made in house; host or cells: E. coli Rosetta2(DE3)
The experiment in a line: fluorescence titration, XeIF4E1a mutant. The format is binding. As to conditions: mutant (E101S/K102R/S195A) of XeIF4E1a.
Description: as §1, §2, §3, §4

Experiment [5] addresses T4, X4E1a4 (E101S/K102R/S195A/M82S) (Xenopus laevis, UniProt P48597, E101S/K102R/M82S/S195A).
T4 construct: made in house; host or cells: E. coli Rosetta2(DE3)
The experiment in a line: fluorescence titration, XeIF4E1a mutant. The format is binding. To be noted: mutant (E101S/K102R/S195A/M82S) of XeIF4E1a.
Description: as §1, §2, §3, §4

The next experiment has as its target T5, X4E1a2 (E101S/K102R) (Xenopus laevis, UniProt P48597, E101S/K102R).
T5 construct: made in house; host or cells: E. coli Rosetta2(DE3)
Nature of the experiment: fluorescence titration, XeIF4E1a mutant. Format: binding. To be noted: mutant (E101S/K102R) of XeIF4E1a.
Description: as §1, §2, §3, §4

In the next experiment the target is T6, X4E1a1 (E101S) (Xenopus laevis, UniProt P48597, E101S).
T6 construct: made in house; host or cells: E. coli Rosetta2(DE3)
Nature of the experiment: fluorescence titration, XeIF4E1a mutant. The format is binding. As to conditions: mutant (E101S) of XeIF4E1a.
Description: as §1, §2, §3, §4

The target in another experiment is T7, X4E1a1’ (K102R) (Xenopus laevis, UniProt P48597, K102R).
T7 construct: made in house; host or cells: E. coli Rosetta2(DE3)
The experiment in a line: fluorescence titration, XeIF4E1a mutant. Format: binding. To be noted: mutant (K102R) of XeIF4E1a.
Description: as §1, §2, §3, §4

The subject of experiment [6] is XeIF4E1a. The experiment in a line: time-synchronized fluorescence titration of cap analogue binding. More on the design: species or system Xenopus laevis. As to conditions: without glycerol.
Description: (§5) The time-synchronized fluorescence titration method, widely used to determine the affinity constants of cap–eIF4E complexes [[20,22–26]], measures the quenching of the intrinsic fluorescence of tryptophan residues due to cap binding (Fig. S2). Knowledge of the equilibrium association constant Kas enables the calculation of the free-energy changes involved in the interaction between eIF4E and ligand, according to the standard equation ΔG° = − RTlnKas.
(§6) For human eIF4E1a and eIF4E1b and also for Xenopus eIF4E1a and its mutated forms, measurements were carried out using 0.1 μM protein in 50 mM Hepes/KOH (pH 7.2), 134.5 mM KCl, 0.5 mM EDTA and 1 mM DTT. For Xenopus eIF4E1b(ΔN27), the concentration was 0.2 μM and glycerol was added to the buffer to 10% (v/v) final concentration. […] Fluorescence of measured samples was excited at 280 nm (2.5 nm bandwidth) and detected at 337 nm or 330 nm (4 nm bandwidth), thus reducing the signal originated from the free cap analogues. Measurements were carried out on a LS-55 spectrofluorometer (Perkin Elmer Co.) using freshly prepared proteins, and the fluorescence intensities were corrected for sample dilution and the inner filter effect.
(§7) Equilibrium association constants (Kas) were determined by fitting the theoretical dependence of fluorescence intensity on the total concentration of the cap analogue to the experimental data points, according to the equation described previously (see Ref. [22] and Fig. S2c).
as §4

Experiment [7] concerns the target T8, XeIF4E1a (Xenopus laevis, UniProt P48597).
T8 construct: made in house; host or cells: E. coli Rosetta2(DE3)
The experiment is described as above. As to conditions: equilibrium association constant.
Description: as §5, §6, §7, §4

The test system of experiment [8] is heIF4E1b. The description is as above. Also on record: species or system human. To be noted: without glycerol.
Description: as §5, §6, §7, §4

In experiment [9] the target is T9, heIF4E1b (Homo sapiens, UniProt A6NMX2).
T9 construct: made in house; host or cells: E. coli Rosetta2(DE3)
T9 sequence (A6NMX2 1-242): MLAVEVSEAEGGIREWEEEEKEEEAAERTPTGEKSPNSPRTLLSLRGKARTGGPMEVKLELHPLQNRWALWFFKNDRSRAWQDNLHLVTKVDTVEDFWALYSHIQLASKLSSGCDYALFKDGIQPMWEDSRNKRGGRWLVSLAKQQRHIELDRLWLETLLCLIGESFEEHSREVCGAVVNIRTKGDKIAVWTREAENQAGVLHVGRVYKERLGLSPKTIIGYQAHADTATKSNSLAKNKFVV
The experiment is described as above. To be noted: equilibrium association constant; buffer without glycerol.
Description: as §5, §6, §7, §4

A further experiment relates to XeIF4E1bΔN27. Described as above. More on the design: species or system Xenopus laevis. As to conditions: 10% glycerol.
Description: as §5, §6, §7, §4

T8 sequence (P48597 whole entry): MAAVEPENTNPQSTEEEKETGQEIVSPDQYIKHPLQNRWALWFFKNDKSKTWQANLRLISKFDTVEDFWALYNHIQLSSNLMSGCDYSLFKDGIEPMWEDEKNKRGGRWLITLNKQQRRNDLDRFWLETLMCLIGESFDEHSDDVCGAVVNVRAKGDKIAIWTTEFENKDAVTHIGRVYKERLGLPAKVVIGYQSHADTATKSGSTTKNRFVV
T2 sequence (P48597 whole entry M82S/E101S/K102R/S195A/T206L/T207S): as the sequence (P48597 whole entry) above, with M82S, E101S, K102R, S195A, T206L, T207S counted along it
T4 sequence (P48597 whole entry M82S/E101S/K102R/S195A): as the sequence (P48597 whole entry) above, with M82S, E101S, K102R, S195A counted along it
T5 sequence (P48597 whole entry E101S/K102R): as the sequence (P48597 whole entry) above, with E101S, K102R counted along it
T1 sequence (P06730 whole entry): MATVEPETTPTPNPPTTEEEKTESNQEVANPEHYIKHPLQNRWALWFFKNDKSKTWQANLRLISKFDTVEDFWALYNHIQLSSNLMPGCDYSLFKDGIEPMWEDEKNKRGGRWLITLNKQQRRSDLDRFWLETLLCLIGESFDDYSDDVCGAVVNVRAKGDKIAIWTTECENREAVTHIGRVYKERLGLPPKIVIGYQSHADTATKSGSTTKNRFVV
T7 sequence (P48597 whole entry K102R): as the sequence (P48597 whole entry) above, with K102R counted along it
T3 sequence (P48597 whole entry E101S/K102R/S195A): as the sequence (P48597 whole entry) above, with E101S, K102R, S195A counted along it
T6 sequence (P48597 whole entry E101S): as the sequence (P48597 whole entry) above, with E101S counted along it

As for `Nc1nc2c(ncn2[C@@H]2O[C@H](COP(=O)(O)OP(=O)([O-])OP(=O)(O)OC[C@H]3O[C@@H]([n+]4cn(Cc5ccccc5)c5c(=O)[nH]c(N)nc54)[C@H](O)[C@@H]3O)[C@@H](O)[C@H]2O)c(=O)[nH]1` [bn^7GpppG], in [1], the “inhibitory potency and translational efficiency compared with m^7GpppG” value was “higher inhibitory potency and translational efficiency”. Besides, the “cap-binding affinity to eIF4E1a versus methylated counterpart” value in the experiment on eIF4E1a was “no increase in cap-binding affinity to eIF4E1a was observed”.

For `Nc1nc2c(c(=O)[nH]1)[n+](Cc1ccccc1)cn2[C@@H]1O[C@H](COP(=O)(O)NCCc2c[nH]c3ccccc23)[C@@H](O)[C@H]1O` [4Ei-1], the “effect on malignant phenotypes and chemosensitization” value in [2] was “suppresses malignant phenotypes and chemosensitizes cells”.

By IC50 is commonly meant the concentration that inhibits the measured activity by half. On to `Cn1c[n+]([C@@H]2O[C@H](COP(=O)(O)OP(=O)([O-])O)[C@@H](O)[C@H]2O)c2nc(N)[nH]c(=O)c21` [m^7GDP], for which the IC50 with in vitro translation is 7.5 µM. For the same compound, the “Kas − glycerol heIF4E1a” value on heIF4E1a is recorded as 17.76 ± 0.34 ^b μM^− 1. Also, in experiment [3] (10% glycerol, Fig. 5d), the “Kas + glycerol X4E1a6” value was found to be 3.68 ± 0.10 µM⁻¹. Also, the “Kas X4E1a6” value in [3] (mutant (E101S/K102R/S195A/M82S/T206L/T207S) of XeIF4E1a) was 6.82 ± 0.17 µM⁻¹. Besides, the “Kas X4E1a3” value in experiment [4] was 8.53 ± 0.36 µM⁻¹. The “Kas X4E1a4” value in experiment [5] is 7.68 ± 0.40 µM⁻¹. The “Kas X4E1a2” value on X4E1a2 (E101S/K102R) came to 8.80 ± 0.16 µM⁻¹. Also, on X4E1a1 (E101S), the “Kas X4E1a1” value was found to be 10.1 ± 1.2 µM⁻¹. The “Kas X4E1a1’” value on X4E1a1’ (K102R) was found to be 11.09 ± 0.21 µM⁻¹. In addition, in the experiment with XeIF4E1a [6], the “Ratio Kas (h4E1a) to Kas (X4E1a)” value amounted to 1.56. Besides, the “Kas + glycerol XeIF4E1a” value on XeIF4E1a [7] (10% glycerol) was 5.97 ± 0.37 μM^− 1. On XeIF4E1a [7] (buffer without glycerol), the “Kas − glycerol XeIF4E1a” value stood at 11.42 ± 0.50 μM^− 1. Further, in the experiment on heIF4E1b [8], the “Ratio Kas (h4E1a) to Kas (h4E1b)” value is 2.32. In addition, the “Kas − glycerol heIF4E1b” value on heIF4E1b [9] is on record as 7.64 ± 0.71 μM^− 1. Also, the “Ratio Kas (X4E1a) to Kas (X4E1bΔN27)” value in the experiment on XeIF4E1bΔN27 is given as 2.45. Also, the “Kas + glycerol XeIF4E1bΔN27” value with XeIF4E1bΔN27 (equilibrium association constant) came to 2.43 ± 0.15 μM^− 1.

Take `COC1C(COP(=O)([O-])OP(=O)(O)OP(=O)(O)OCC2OC(n3cnc4c(=O)[nH]c(N)nc43)C(O)C2O)OC(n2c[n+](C)c3c(=O)[nH]c(N)nc32)C1O` (centres unmarked) [m^7,3′OGpppG]: in experiment [1], the “inhibitory potency and translational efficiency compared with m^7GpppG” value is “higher inhibitory potency and translational efficiency”.
